Data as given in patent US20110118379A1, “INTERVERTEBRAL DISC AND INTRAOCULAR LENS” (priority 2008, published 2011).

Assays:
[1] = tested on: bovine nucleus pulposus cells; assay: MTS cytotoxicity assay, bovine nucleus pulposus cells; type: cell-based; conditions: bovine disc cells, 24 hours incubation
Experimental: (§1) Cytotoxicity testing was carried out on precursor monomers and proteoglycan analogues via the MTS assay using a commercial Kit (MTS assay Cell titre 96® AQueous One Solution Cell Proliferation Assay). Briefly, 5×10^3 cells per well were allowed to adhere to a 96 well plate for 24 hours. The substance under test was added and incubated with the cells for 24 hours before assessment of cell activity with MTS solution. Two cell types were used: (i) L929 mouse fibroblasts (European Collection of Cell Culture: ECACC No 85011425) which are typically used in cytotoxicity tests and (ii) bovine nucleus pulposus cells, prepared by enzymatic digestion of nucleus pulposus from bovine coccygeal discs.
(§2) The individual possible components of proteoglycan analogues were tested, including: NaAMPS, KSPA, acryloyl morpholine (ACMO), glycerol, ascorbic acid, Oxone (potassium oxypersulphate), PEG diacrylate and multifunctional macromer cross-linkers. The proteoglycan analogues are exemplified by those in Tables 1 and 2.

[2] = tested on: L929 mouse fibroblasts; assay: MTS cytotoxicity assay, L929 cells; type: cell-based; conditions: 24 hours incubation
Experimental: as §1, §2

In the case of `O=C1O[C@H]([C@@H](O)CO)C(O)=C1O` [ascorbic acid], the “toxicity to cells (MTS assay)” value [1] is reported as “not to be toxic” and the “toxicity to cells (MTS assay)” value [2] is reported as “not to be toxic”.

In the case of potassium oxypersulphate [Oxone], the “toxicity to cells (MTS assay)” value [1] is reported as “not to be toxic” and the “toxicity to cells (MTS assay)” value [2] is reported as “not to be toxic”.
